# Columns and labels:
# TSPO [1] = biological target: T1, TSPO (Mus musculus, UniProt P50637); assay: In vitro autoradiography, brain sections of G7 orthotopic mouse model of human glioblastoma; type: binding; conditions: contralateral region; 3 nM tracer, 10 µM PK11195
# T1 construct: The brain from a mouse bearing an intracranial G7 tumour was used; from tissue; host or cells: 20 µm coronal cryosections of CD1 nude mouse brain with an intracranial G7 human glioblastoma xenograft
# From the text: (§1) An initial investigation of the potential of [^18F]-AB5186 6 to bind to TSPO in brain involved in vitro autoradiography using a G7 orthotopic mouse model of human glioblastoma.[25] Autoradiography allows the distribution of a radiolabelled compound to be visualised in intact biological tissue sections.[26] […] Displacement of [^18F]-AB5186 6 by the TSPO ligand PK11195 confirms the in vitro specificity of the tracer for TSPO in brain tissue.
# (§2) The fraction containing 18F-AB5186 6 was concentrated in vacuo and then reconstituted in 2 mL of a 10% ethanol/0.9% saline solution. Passing the sample through a pre-treated 13 mm 0.2 µm filter then completed formulation of the radiotracer. The identity of the radiolabelled product was confirmed by co-injection with a cold sample of AB5186 6. Quality control was performed by analytical HPLC, using a Phenomenex Synergi 4 µm Hydro-RP 80A (150 × 4.60 mm) column and the mobile phase described above for the semi-prep HPLC purification step. Radiochemical purity was determined by measuring the area under the peaks on the chromatogram, and specific activity was calculated using a standard curve.
# (§3) 8. Radio-HPLC chromatogram of [18F]-AB5186 (6) after purification
# (§4) CD1 nude mice had […] of either G7 or U87MG-Luc2 cultured cells implanted intracranially into the caudate nucleus using standard stereotactic procedures. Successful implantation of U87MG-Luc2 tumours was confirmed by performing IVIS® scans approximately two weeks following the procedure. Animals were used for ex vivo autoradiography and PET imaging studies 21–30 days post tumour implantation. Prior to any procedure mice were anaesthetised using inhaled isoflurane (in medical oxygen; induction 5.0%; maintenance 2.0–3.0%). Body temperature was maintained using a heating pad.
# (§5) 10. In vitro Autoradiography5 Methodology
# (§6) The brain from a mouse bearing an intracranial G7 tumour was used. […]
# (§7) temperature. Non-specific binding was determined in adjacent sections by incubating with [18F]- AB5186 6 in the presence of 10 µM PK11195 (Tocris, UK). […]
# TSPO [2] = assay: as above; type: binding
# From the text: as §1, §2, §3, §4, §5, §6, §7
# T1 sequence (P50637 whole entry): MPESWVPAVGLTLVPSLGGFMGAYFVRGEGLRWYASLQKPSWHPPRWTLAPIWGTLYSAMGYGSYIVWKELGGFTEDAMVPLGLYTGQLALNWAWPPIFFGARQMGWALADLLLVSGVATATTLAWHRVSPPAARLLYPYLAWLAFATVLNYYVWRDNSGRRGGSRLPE
structure (smiles),measurement,setting,value
CCN(CC)C(=O)c1nc2ccccc2c(-c2ccccc2)c1C[18F] [[^18F]-AB5186 6],displacement of tracer binding by excess unlabelled PK11195,TSPO [1],23%
same,"total binding, tumour tissue compared to contralateral side","TSPO [2]; in vitro autoradiograms, G7 xenograft",markedly increased
same,displacement of tracer binding by excess unlabelled PK11195,"TSPO [2]; tumour tissue, 3 nM tracer, 10 µM PK11195",76%

# Source: PMC5667507, “A novel ^18F-labelled high affinity agent for PET imaging of the translocator protein” (Chemical Science, 2015)
